Experiments:
rats = conditions: rat, in vivo
[1] = cited from earlier work

Question: Which results are given for `N=C1NC(O)C2C3OC4(O)OC(C(O)C2(N1)C4O)C3(O)CO` (stereo not shown) [TTX, octahydro-12-(hydroxymethyl)-2-imino-5,9:7,10a-dimethano-10aH-(1,3)dioxocino(6,5-d)-pyrimidine-4,7,10,11, 12-pentol]?
Answer: effective dosage (rats): 2.5 µg/mg; solubility in acidic aqueous solution [1]: soluble; solubility in organic solvents [1]: not soluble; solubility in water [1]: only slightly soluble

From patent US6559154B2 (priority 2000, dated 2003)
